The values below come from PubChem BioAssay (NCI).

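Results reflect a 48-hour exposure of cells in 96-well plates to compound at five concentrations. Abbreviation: GI50, concentration required for 50% inhibition of growth. TGI: concentration producing complete growth inhibition.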

Some test systems named below: A498 renal; KM12 colon; LOX IMVI melanoma; MOLT-4 leukemia; NCI-H226 lung; SK-MEL-28 melanoma; SNB-75 CNS; SW-620 colon; T-47D breast; UACC-257 melanoma.
What all share (test): inhibition of tumour cell growth, NCI panel, 48 h

Regarding `COc1ccc2c(c1)C(=O)c1c-2n(CCCN=[N+]=[N-])c(=O)c2cc(OC)c(OC)cc12`, the GI50 with A498 renal was greater than 100 µM; in the assay with KM12 colon, greater than 100 µM; with LOX IMVI melanoma, 25.1 µM; with MOLT-4 leukemia, 10.6 µM; in the assay on NCI-H226 lung, greater than 100 µM; in the assay with SK-MEL-28 melanoma, greater than 100 µM. In addition, the GI50 is 14.8 µM with SNB-75 CNS, greater than 100 µM in the assay with SW-620 colon, greater than 100 µM in the assay with T-47D breast and greater than 100 µM with UACC-257 melanoma. Besides, the TGI with A498 renal was greater than 100 µM; in the assay with KM12 colon, greater than 100 µM; in the assay on LOX IMVI melanoma, greater than 100 µM; in the assay on MOLT-4 leukemia it was 23.5 µM; in the assay with NCI-H226 lung it was greater than 100 µM; in the assay on SK-MEL-28 melanoma, greater than 100 µM. Further, the TGI is 35.3 µM in the assay on SNB-75 CNS, greater than 100 µM in the assay on SW-620 colon, greater than 100 µM in the assay on T-47D breast and greater than 100 µM in the assay with UACC-257 melanoma.
